From patent publication US20050037067A1, “3,7-Diazabicyclo [3.3.1]formulations as anti-arrhythmic compounds” (priority 2001, published 2005) come the findings set out here.

The nature of this data set: Solubility of the salt in vehicle compared to water alone. It is filed as physicochemical. Here is the method:
Salt was dissolved in the 40/60 (w/w %) hydroxypropyl-β-cyclodextrin/water vehicle.
The solubility of the salt was almost 40 times higher in this vehicle compared to water alone.
Salt was dissolved in PEG 400, ethanol and the surfactant Solutol™ (BASF; comprises polyethylene glycol esters of 12-OH-stearic acid). Water was added to the final volume. The solubility of the benzenesulphonate salt was approximately 4 times higher in this vehicle than it is in water alone.

Where a name gives a salt, the structure may show the parent alone.

With `CC(C)(C)C(=O)CN1CC2CN(CCCNc3ccc(C#N)cc3)CC(C1)O2` [Compound A, benzenesulphonic acid salt, 4-({3-[7-(3,3-dimethyl-2-oxobutyl)-9-oxa-3,7-diazabicyclo[3.3.1]non-3-yl]propyl}amino)benzonitrile], the “solubility in vehicle compared to water alone” value by setting is: (vehicle Polyethyleneglycol 400/Ethanol/Solutol/Water (40/10/5/45 w/w %)) “approximately 4 times”; (vehicle hydroxypropyl-β-cyclodextrin/water (40/60 w/w %)) around 40 times.
